The assay deals with HT-29 cells. Description: HT-29 cell necrosis/necroptosis inhibition (TNF-α + SMAC mimetic + zVAD-FMK; CellTiter-Glo cell viability). The assay is classed as cell-based. The settings on record: Homo sapiens, HT-29 cells, TNF-α 10 ng/ml + SMAC mimetic 6 μM + zVAD-FMK 10 μM, 20 hours, geometric mean, 10 points in duplicate. How it is done:
Compounds 1-319 (denoted as Compound Nos. 1 through 319 in Table 3 and 4) of the disclosure were tested for binding and cellular RIP1 inhibitory activity following the experimental procedures described below.
• Cell line: HT-29 (ATCC® HTB-38™) • Culture medium: McCOY's 5A, Gibco, Cat No. 16600-082 • FBS, Gibco, Cat No. 10099-141C • Trypsin: Gibco, Cat No. 25200-056 • DMSO: Sigma, Cat No. 67-68-5, 1L • Assay plate: Corning #3903 • Compound dilution plate: Corning #3357 • Inducers: TNFα, GenScript, Cat No. Z01001-50, • SmacM, Cat. No., HY-15989, MedChemExpress (MCE) • Z_VAD FMK, TargetMol, T6013 • Cell Titer-Glo® Luminescent Cell Viability Assay Kit: Promega, Cat No. G7573 • EnVision: PerkinElmer, 2105-0010 Methods Cell Seeding
1. HT-29 cells were checked every day to make sure that they were healthy and growing as expected. They were subjected to sub-culturing when they were approximately 80% confluent.
2. The culture medium, McCOY's 5A medium (Gibco, Cat No. 16600-082) with 10% fetal bovine serum or FBS (Gibco, Cat No. 10099-141C), was pre-warmed in a 37° C. water bath for at least 30 min.
3. When the cells had reached a desired level of confluency of 80% in a T75 flask, the medium was aspirated, and the cells were washed with warm phosphate buffered saline or PBS two times.
4. 2-3 ml fresh warm trypsin (Gibco, Cat No. 25200-056) solution was added to the washed cells. The flask with the cells was transferred to a 37° C. incubator.
5. After 5 minutes, the side of the flask was tapped, and the flask was examined under a microscope for detachment of the cells to the flask. If necessary, the cells were kept in the incubator for an additional 5-10 minutes, with occasional tapping, until lifting was complete.
6. The trypsin reaction was neutralized by transferring 6-9 ml cell culture medium to sterile 15 ml conical tubes, and by centrifuging the cell culture at 300×g for 7 minutes to pellet the cells (supernatant decanted).
7. The cells were resuspended in fresh cell culture medium and the cell counting was performed using a hemocytometer.
8. 100 μl of the resuspended cell culture medium containing ˜5,000 cells were transferred into each well of the sterile 96-well cell culture plate (Corning 3903) and cultured overnight at 37° C. with 5% CO2.
Compound Titration and Treatment
1. All test compounds were dissolved in DMSO (Dimethyl sulfoxide) to create a 20 mM stock.
2. 3 μl of each compound 20 mM stock was mixed with 27 μl DMSO, and the compound solution was further diluted at a titration ratio of 1:3 (20 μl compound solution+40 μl DMSO) till the 10 points end.
3. All culture medium was removed from assay plates filled with HT-29 cell cultures. The cells were then washed with 1 PBS, and resuspended in fresh, FBS-free McCOY's 5A medium containing a cocktail of TNF-α (10 ng/ml), a SMAC mimetic compound (6 μM) and Z-VAD-fluoromethylketone or zVAD-FMK (10 μM) to stimulate the HT-29 cells to increase RIP1 kinase levels and necroptosis.
4. 0.5 μL of the diluted compound solution was added to the corresponding 96-well assay plates.
5. The assay plates were incubated for 20 hours at 37° C. with 5% CO2.
1. The CellTiter-Glo® Luminescent Cell Viability Assay was employed to detect the ATP levels of viable HT-29 cells.
2. The CellTiter-Glo® buffer and the lyophilized substrate were equilibrated to room temperature prior to use.
3. The CellTiter-Glo® substrate was resuspended with CellTiter-Glo® buffer, then mixed by gently vortexing to obtain a homogeneous solution.
4. 20 μl the enzyme/substrate mixture was transferred by multi-channel pipetting into 96-well assay plates.
5. The assay plates were placed on an orbital shaker and the contents were shaken for 3 minutes to induce cell lysis.
6. The assay plates were incubated at room temperature for 10 minutes to stabilize the luminescent signal.
7. The luminescence signals were read and recorded with EnVision.
8. The geometric mean EC50 values were calculated from 10 points response dose with duplicates. In

Where [1] appears, read: read-out: EC50 (Cell activity; Necrosis/Necroptosis Inhibitory Activity, Compounds 1-142).
Setting [2] is: read-out: EC50 (Cell activity; Necrosis/Necroptosis Inhibitory Activity, Compounds 143-323).

Where two headings read alike, the source gives them in different places.

The EC50 is the concentration that produces a half-maximal response. As to `N#Cc1cc(F)cc([C@@H]2CC=NN2C(=O)N2CCN(c3nccc(-c4cc[nH]n4)n3)CC2)c1` [Compound 34, (5)-3-(1-(4-(4-(1H-pyrazol-3-yl)pyrimidin-2-yl)piperazine-1-carbonyl)-4,5-dihydro-1H-pyrazol-5-yl)-5-fluorobenzonitrile], the EC50 under setting [1] was in the range of 0.1 to 100 nM.
Same read-out and setting: with `Cn1nncc1-c1nc(N2CCN(C(=O)N3N=CC[C@H]3c3cc(F)cc(F)c3)CC2)ncc1F` [Compound 44, (S)-(5-(3,5-difluorophenyl)-4,5-dihydro-1H-pyrazol-1-yl)(4-(5-fluoro-4-(1-methyl-1H-1,2,3-triazol-5-yl)pyrimidin-2-yl)piperazin-1-yl)methanone] the figure was 0.1 to 100 nM; with `Cc1cc(-c2nc(N3CCN(C(=O)N4N=CC[C@H]4c4ccccc4)CC3)ncc2F)n(C)n1` [Compound 85, (S)-(4-(4-(1,3-dimethyl-1H-pyrazol-5-yl)-5-fluoropyrimidin-2-yl)piperazin-1-yl)(5-phenyl-4,5-dihydro-1H-pyrazol-1-yl)methanone], 0.1 to 100 nM.
On the same count and under the same terms, with `O=C(N1CCN(c2ncc(F)c(-c3ccc(O)nc3)n2)CC1)N1N=CC[C@H]1c1cc(F)cc(F)c1` [Compound 25, (S)-(5-(3,5-difluorophenyl)-4,5-dihydro-1H-pyrazol-1-yl)(4-(5-fluoro-4-(6-hydroxypyridin-3-yl)pyrimidin-2-yl)piperazin-1-yl)methanone] the figure was 0.1 to 100 nM; with `N#Cc1cncc([C@@H]2CC=NN2C(=O)N2CCN(c3nccc(-c4cc[nH]n4)n3)CC2)c1` [Compound 38, (S)-5-(1-(4-(4-(1H-pyrazol-3-yl)pyrimidin-2-yl)piperazine-1-carbonyl)-4,5-dihydro-1H-pyrazol-5-yl)nicotinonitrile], 0.1 to 100 nM.
With `O=C(N1CCN(c2ncc(F)c(-c3cn[nH]c3)n2)CC1)N1N=CC[C@H]1c1cc(F)cc(F)c1` [Compound 52, (S)-(5-(3,5-difluorophenyl)-4,5-dihydro-1H-pyrazol-1-yl)(4-(5-fluoro-4-(1H-pyrazol-4-yl)pyrimidin-2-yl)piperazin-1-yl)methanone], under setting [1], the EC50 was 0.1 to 100 nM.
Same read-out and setting: with `Cc1cc(-c2cc(N3CCN(C(=O)N4N=CC[C@H]4c4cc(F)cc(F)c4)CC3)ncc2F)n(C)n1` [Compound 116, (S)-(5-(3,5-difluorophenyl)-4,5-dihydro-1H-pyrazol-1-yl)(4-(4-(1,3-dimethyl-1H-pyrazol-5-yl)-5-fluoropyridin-2-yl)piperazin-1-yl)methanone] the figure was 0.1 to 100 nM; with `O=C(N1CCN(c2ncc(F)c(-c3ccc[nH]c3=O)n2)CC1)N1N=CC[C@H]1c1cc(F)cc(F)c1` [Compound 87, (S)-3-(2-(4-(5-(3,5-difluorophenyl)-4,5-dihydro-1H-pyrazole-1-carbonyl)piperazin-1-yl)-5-fluoropyrimidin-4-yl)pyridin-2(1H)-one], 0.1 to 100 nM; with `Cc1cnn(C)c1-c1nc(N2CCN(C(=O)N3N=CC[C@H]3c3cc(F)cc(F)c3)CC2)ncc1F` [Compound 61, (S)-(5-(3,5-difluorophenyl)-4,5-dihydro-1H-pyrazol-1-yl)(4-(4-(1,4-dimethyl-1H-pyrazol-5-yl)-5-fluoropyrimidin-2-yl)piperazin-1-yl)methanone], 0.1 to 100 nM.
Same read-out and setting: with `Cc1nc(C)n(-c2nc(N3CCN(C(=O)N4N=CC[C@H]4c4cc(F)cc(C#N)c4)CC3)ncc2F)n1` [Compound 47, (S)-3-(1-(4-(4-(3,5-dimethyl-1H-1,2,4-triazol-1-yl)-5-fluoropyrimidin-2-yl)piperazine-1-carbonyl)-4,5-dihydro-1H-pyrazol-5-yl)-5-fluorobenzonitrile] the figure was 0.1 to 100 nM.
For `Cn1ncnc1-c1nc(N2CCN(C(=O)N3N=CC[C@H]3c3cc(F)cc(F)c3)CC2)ncc1F` [Compound 65, (S)-(5-(3,5-difluorophenyl)-4,5-dihydro-1H-pyrazol-1-yl)(4-(5-fluoro-4-(1-methyl-1H-1,2,4-triazol-5-yl)pyrimidin-2-yl)piperazin-1-yl)methanone], under setting [1], the EC50 lay within 0.1 to 100 nM.
Regarding `Cc1nc(C(N)=O)nn1-c1nc(N2CCN(C(=O)N3N=CC[C@H]3c3cc(F)cc(F)c3)CC2)ncc1F` [Compound 252, (S)-1-(2-(4-(5-(3,5-difluorophenyl)-4,5-dihydro-1H-pyrazole-1-carbonyl)piperazin-1-yl)-5-fluoropyrimidin-4-yl)-5-methyl-1H-1,2,4-triazole-3-carboxamide], the EC50 under setting [2] was 0.1 to 100 nM.
The same measure, in the same setting: with `Cc1nn(-c2cc(N3CCN(C(=O)N4N=CC[C@H]4c4cncc(F)c4)CC3)ncn2)c(C)c1C#N` [Compound 286, (S)-1-(6-(4-(5-(5-fluoropyridin-3-yl)-4,5-dihydro-1H-pyrazole-1-carbonyl)piperazin-1-yl)pyrimidin-4-yl)-3,5-dimethyl-1H-pyrazole-4-carbonitrile] the figure was 0.1 to 100 nM; with `Cc1nc(C2CC=NN2C(=O)N2CCN(c3nc(-c4c(C)cnn4C)ccc3F)CC2)cs1` (stereo not shown) [Compound 298, (4-(6-(1,4-dimethyl-1H-pyrazol-5-yl)-3-fluoropyridin-2-yl)piperazin-1-yl)(5-(2-methylthiazol-4-yl)-4,5-dihydro-1H-pyrazol-1-yl)methanone], 0.1 to 100 nM; with `Cn1ncnc1-c1ccc(F)c(N2CCN(C(=O)N3N=CCC3c3ncccc3Cl)CC2)n1` (stereo not shown) [Compound 222, (5-(3-chloropyridin-2-yl)-4,5-dihydro-1H-pyrazol-1-yl)(4-(3-fluoro-6-(1-methyl-1H-1,2,4-triazol-5-yl)pyridin-2-yl)piperazin-1-yl)methanone], 0.1 to 100 nM.
The same measure, in the same setting: the value for `Cc1nn(-c2cc(N3CCN(C(=O)N4N=CC[C@H]4c4cc(F)cc(C#N)c4)CC3)ncn2)c(C)c1Br` [Compound 278, (S)-3-(1-(4-(6-(4-bromo-3,5-dimethyl-1H-pyrazol-1-yl)pyrimidin-4-yl)piperazine-1-carbonyl)-4,5-dihydro-1H-pyrazol-5-yl)-5-fluorobenzonitrile] was 0.1 to 100 nM; that for `Cc1nc(C)n(-c2nc(N3C[C@@H](C)N(C(=O)N4N=CC[C@H]4c4cc(F)cc(C#N)c4)[C@@H](C)C3)ncc2F)n1` [Compound 146, 3-((S)-1-((2S,6R)-4-(4-(3,5-dimethyl-1H-1,2,4-triazol-1-yl)-5-fluoropyrimidin-2-yl)-2,6-dimethylpiperazine-1-carbonyl)-4,5-dihydro-1H-pyrazol-5-yl)-5-fluorobenzonitrile] was 1000 to 10000 nM.
For `Cn1nccc1-c1nc(N2CCN(C(=O)N3N=CC[C@H]3c3cc(F)cc(F)c3)CC2)ncc1F` [Compound 28, (S)-(5-(3,5-difluorophenyl)-4,5-dihydro-1H-pyrazol-1-yl)(4-(5-fluoro-4-(1-methyl-1H-pyrazol-5-yl)pyrimidin-2-yl)piperazin-1-yl)methanone], the EC50 under setting [1] is 0.1 to 100 nM.
With `Cc1nc(C)n(-c2nccc(N3CCN(C(=O)N4N=CC[C@H]4c4cc(F)cc(C#N)c4)CC3)n2)n1` [Compound 244, (S)-3-(1-(4-(2-(3,5-dimethyl-1H-1,2,4-triazol-1-yl)pyrimidin-4-yl)piperazine-1-carbonyl)-4,5-dihydro-1H-pyrazol-5-yl)-5-fluorobenzonitrile], the EC50 under setting [2] lay within 0.1 to 100 nM.

(Values after patent publication US12454529B2, “Piperazine cyclic ureas” (SIRONAX LTD., priority 2020, dated 2025).)
